Measured values: ChEMBL document CHEMBL3098116, “Synthesis and biological evaluation of the pirfenidone derivatives as antifibrotic agents” (Bioorg Med Chem Lett, 2014)

Legend:
MRC5 = experiment: Antifibrotic activity in human MRC5 cells assessed as inhibition of cell growth after 24 hrs by MTT assay; assay type: functional, cell-based; conditions: MRC5, 24 h
[1] = molecular target: T1, Mitogen-activated protein kinase 14 (Homo sapiens, UniProt Q16539); experiment: Inhibition of p38alpha (unknown origin) up to 60 mins by ADP-Glo assay
[2] = molecular target: T1, Mitogen-activated protein kinase 14; experiment: Ratio of pirfenidone IC50 for compound IC50 for p38alpha (unknown origin) up to 60 mins by ADP-Glo assay

T1 sequence (Q16539 whole entry): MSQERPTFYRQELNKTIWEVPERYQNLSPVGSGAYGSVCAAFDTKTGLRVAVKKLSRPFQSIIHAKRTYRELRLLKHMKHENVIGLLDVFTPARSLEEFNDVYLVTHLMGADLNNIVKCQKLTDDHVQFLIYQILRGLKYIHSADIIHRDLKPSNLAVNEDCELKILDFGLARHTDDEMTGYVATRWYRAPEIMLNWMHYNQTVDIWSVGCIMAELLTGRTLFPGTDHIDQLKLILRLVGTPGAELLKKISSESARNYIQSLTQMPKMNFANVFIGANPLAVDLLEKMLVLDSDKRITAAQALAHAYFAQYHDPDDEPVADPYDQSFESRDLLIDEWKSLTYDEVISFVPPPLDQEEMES

IC50 [1] [mM] | Ratio IC50 [2] | SMILES | IC50 (MRC5) [mM]
 |  | Cc1ccc(=O)n(-c2ccc(OCCCCN3CCCC3)cc2)c1 | 1.77
 |  | CCN(CC)CCCCCOc1ccc(-n2cc(C)ccc2=O)cc1 | 4.35
 |  | Cc1ccc(=O)n(-c2ccc(OCCCCN3CCOCC3)cc2)c1 | 3.03
0.0543 |  | Cc1ccc(=O)n(-c2ccc(OCCN3CCCCC3)cc2)c1 | 2.48
 |  | Cc1ccc(=O)n(-c2ccc(OCCCN3CCOCC3)cc2)c1 | 5.28
 |  | Cc1ccc(=O)n(-c2ccc(OCCCCN(C)C)cc2)c1 | 1.8
 |  | Cc1ccc(=O)n(-c2ccc(OCCN(C)C)cc2)c1 | 6.88
 |  | Cc1ccc(=O)n(-c2ccc(OCCCCN3CCN(C)CC3)cc2)c1 | 2.33
 |  | Cc1ccc(=O)n(-c2ccc(OCCCCCN(C)C)cc2)c1 | 2.98
 |  | Cc1ccc(=O)n(-c2ccc(OCCCCCN3CCN(C)CC3)cc2)c1 | 3.41
 |  | CCN(CC)CCOc1ccc(-n2cc(C)ccc2=O)cc1 | 6.2
 |  | Cc1ccc(=O)n(-c2ccc(OCCCCCN3CCOCC3)cc2)c1 | 2.59
0.165 |  | Cc1ccc(=O)n(-c2ccccc2)c1 [PIRFENIDONE] | 14.4
0.00521 |  | Cc1ccc(=O)n(-c2ccc(OCCCCN3CCCCC3)cc2)c1 | 3.29
 |  | Cc1ccc(=O)n(-c2ccc(OCCN3CCCC3)cc2)c1 | 3.78
0.00407 | 40 | Cc1ccc(=O)n(-c2ccc(OCCCN3CCCCC3)cc2)c1 | 2.55
 |  | Cc1ccc(=O)n(-c2ccc(OCCCCCN3CCCC3)cc2)c1 | 1.47
0.0162 |  | Cc1ccc(=O)n(-c2ccc(OCCCCCN3CCCCC3)cc2)c1 | 3.67
 |  | Cc1ccc(=O)n(-c2ccc(OCCCN3CCCC3)cc2)c1 | 3
 |  | CCN(CC)CCCCOc1ccc(-n2cc(C)ccc2=O)cc1 | 2.16
 |  | Cc1ccc(=O)n(-c2ccc(OCCN3CCN(C)CC3)cc2)c1 | 1.36
0.0142 |  | Cc1ccc(=O)n(-c2ccc(OCCCN(C)C)cc2)c1 | 5.22
 |  | Cc1ccc(=O)n(-c2ccc(OCCN3CCOCC3)cc2)c1 | 7.64
 |  | CCN(CC)CCCOc1ccc(-n2cc(C)ccc2=O)cc1 | 2.1
 |  | Cc1ccc(=O)n(-c2ccc(OCCCN3CCN(C)CC3)cc2)c1 | 4.36
